Test results: US5874426A, “Cyclic amine derivatives of substituted quinoxaline 2,3-diones as glutamate receptor antagonists” (Warner-Lambert Company, priority 1995, dated 1999)

Experiments:
[1] = tested on: CF-1 strain mice; test: maximal electroshock assay in CF-1 strain mice, corneal electrodes; assay type: in vivo; details: ten mice; IV; 30 seconds; 0.5 min
Excerpt: The graph is the […] of mice protected versus the time in minutes.

[2] = target: AMPA receptors; test: AMPA receptor binding affinity (Honoré et al.); details: Table 1
[3] = target: kainate site (non-NMDA receptor); test: kainate site (non-NMDA receptor) binding affinity (London and Coyle); details: Table 1

Row | IC50 [2] | IC50 KA [3] | Compound | ED50 maximal electroshock dose-response [1]
1 | – | – | 1,4,7,8,9,10-hexahydro-7-methyl-6-nitro-pyrido[3,4-f]quinoxaline-2,3-dione [PNQX] | 0.5 mg/kg
2 | 740 nM | 2840 nM | Cc1c([N+](=O)[O-])cc2[nH]c(=O)c(=O)[nH]c2c1CN1C(C)CCC1C (stereo not drawn) [5-(2,5-Dimethyl-pyrrolidin-1-ylmethyl)-6-methyl-7-nitro-1,4-dihydroquinoxaline-2,3-dione] | –
3 | 486 nM | 6540 nM | Cc1c([N+](=O)[O-])cc2[nH]c(=O)c(=O)[nH]c2c1CN1CCC2(CCCCC2)CC1 [5-(3-Azaspiro [5.5]undec-3-ylmethyl)-6-methyl-7-nitro-1,4-dihydroquinoxaline-2,3-dione] | –
4 | 899 nM | 3695 nM | Cc1c([N+](=O)[O-])cc2[nH]c(=O)c(=O)[nH]c2c1CN1CCCCCC1 [5-Azepan-1-ylmethyl-6-methyl-7-nitro-1,4-dihydroqinoxaline-2,3-dione] | –
5 | 490 nM | 8280 nM | Cc1c([N+](=O)[O-])cc2[nH]c(=O)c(=O)[nH]c2c1CN1CCCCC1C (stereo not drawn) [6-Methyl-5-(2-methyl-piperidin-1-ylmethyl)-7-nitro-1,4-dihydroquinoxaline-2,3-dione] | –
6 | 370 nM | 6110 nM | Cc1c([N+](=O)[O-])cc2[nH]c(=O)c(=O)[nH]c2c1CN1CCCC1C (stereo not drawn) [6-Methyl-5-(2-methyl-pyrrolidin-1-ylmethyl)-7-nitro-1,4-dihydroquinoxaline-2,3-dione] | –
7 | 2470 nM | 13200 nM | Cc1c([N+](=O)[O-])cc2[nH]c(=O)c(=O)[nH]c2c1CN1CCN(C)CC1 [6-Methyl-5-(4-methyl-piperazin-1-ylmethyl)-7-nitro-1,4-dihydroquinoxaline-2,3-dione] | –
8 | 420 nM | 9950 nM | Cc1c([N+](=O)[O-])cc2[nH]c(=O)c(=O)[nH]c2c1CN1CCC(C)CC1 [6-Methyl-5-(4-methyl-piperidin-1-ylmethyl)-7-nitro-1,4-dihydroquinoxaline-2,3-dione] | –
9 | 572 nM | 9083 nM | Cc1c([N+](=O)[O-])cc2[nH]c(=O)c(=O)[nH]c2c1CN1CCOCC1 [6-Methyl-5-morpholin-4-ylmethyl-7-nitro-1,4-dihydroquinoxaline-2,3-dione] | –
10 | 220 nM | 4520 nM | Cc1c([N+](=O)[O-])cc2[nH]c(=O)c(=O)[nH]c2c1CN1CCCC1 [6-Methyl-5-pyrrolidin-1-ylmethyl-7-nitro-1,4-dihydroquinoxaline-2,3-dione] | –
11 | 290 nM | 4110 nM | Cc1c([N+](=O)[O-])cc2[nH]c(=O)c(=O)[nH]c2c1CN1CCCCC1 [6-Methyl-7-nitro-5-piperidin-1-ylmethyl-1,4-dihydroquinoxaline-2,3-dione] | –
